Results as given in US8748430B2, “Pyrrolidin-3yl-methylamine quinoxaline derivatives” (Hoffmann-La Roche Inc, priority 2008, dated 2014).

Target: T1, human orexin-2 (hOX2) receptor (Homo sapiens, UniProt O43614)
T1 construct: expressed in transfected cells
T1 sequence (O43614 1-444): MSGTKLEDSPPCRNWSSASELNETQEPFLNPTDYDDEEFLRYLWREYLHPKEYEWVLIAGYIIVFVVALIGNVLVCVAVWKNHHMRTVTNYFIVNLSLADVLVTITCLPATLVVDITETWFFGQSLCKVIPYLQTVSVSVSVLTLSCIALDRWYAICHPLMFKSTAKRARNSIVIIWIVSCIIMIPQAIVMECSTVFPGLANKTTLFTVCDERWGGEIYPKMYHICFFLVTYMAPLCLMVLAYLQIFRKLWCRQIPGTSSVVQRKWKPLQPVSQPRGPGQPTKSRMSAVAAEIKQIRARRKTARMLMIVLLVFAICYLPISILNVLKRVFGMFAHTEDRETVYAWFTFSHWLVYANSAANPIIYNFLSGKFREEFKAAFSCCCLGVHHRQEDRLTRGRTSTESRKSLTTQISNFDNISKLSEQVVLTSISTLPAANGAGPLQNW
Assay: Intracellular Ca2+ mobilization assay (FLIPR), antagonism of orexin-A at EC80
Type: cell-based
Details: CHO(dHFr-) cells stably expressing hOX2; orexin-A at EC80 as agonist; antagonist applied 25 min before; Kb=IC50/(1+[A]/EC50); read-out: Kb (μM) OX2R (human)
Procedure: Intracellular Ca^2+ Mobilization Assay
The Chinese Hamster Ovary (dHFr-) mutant cell line stably expressing human orexin-1 (hOX1) or human orexin-2 (hOX2) receptors were maintained in Dulbecco's Modified Eagle Medium (1×) with GlutaMax™1, 4500 mg/L D-Glucose and Sodium Pyruvate (Catalog No. 31966-021, Invitrogen, Carlsbad, Calif.), 5% dialyzed fetal calf serum (Catalog No. 26400-044), 100 μg/ml penicillin and 100 μg/ml streptomycin. The cells were seeded at 5×10^4 cells/well in the poly-D-lysine treated, 96-well, black/clear-bottomed plates (Catalog No. BD356640, BD Biosciences, Palo Alto, Calif.). 24 h later, the cells were loaded for 1 h at 37° C. with 4 μM Flou-4 acetoxymethyl ester (Catalog No. F-14202, Molecular Probes, Eugene, Oreg.) in FLIPR buffer (1×HBSS, 20 mM HEPES, 2.5 mM Probenecid). Hanks' Balanced Salt Solution (HBSS) (10×) (catalog No. 14065-049) and HEPES (1M) (catalog No. 15630-056) were purchased from Invitrogen, Carlsbad, Calif. Probenecid (250 mM) (catalog No. P8761) was from Sigma, Buchs, Switzerland. The cells were washed five times with FLIPR buffer to remove excess dye and intracellular calcium mobilization, [Ca^2+]i were measured using a Fluorometric Imaging Plate Reader (FLIPR-96, Molecular Devices, Menlo Park, Calif.) as described previously (Malherbe et al., Mol. Pharmacol., 64, 823-832, 2003). Orexin A (catalog No. 1455, Toris Cookson Ltd, Bristol, UK) was used as agonist. Orexin A ([…] stock solution in DMSO) was diluted in FLIPR buffer+0.1% BSA. The EC50 and EC80 values of orexin-A were measured daily from standard agonist concentration-response curves in CHO(dHFr-)-OX1R and -OX2R cell lines. All compounds were dissolved in 100% DMSO. Inhibition curves were determined by addition of 11 concentrations (0.0001-10 μM) of inhibitory compounds and using EC80 value of orexin-A as agonist (a concentration which gave 80% of max agonist response, determined daily). The antagonists were applied 25 min (incubation at 37° C.) before the application of the agonist. Responses were measured as peak increase in fluorescence minus basal, normalized to the maximal stimulatory effect induced by EC80 value of orexin-A or orexin-B. Inhibition curves were fitted according to the Hill equation: y=100/(1+(x/IC50)^nH), where nH=slope factor using Excel-fit 4 software (Microsoft). Kb values were calculated according to the following equation Kb=IC50/(1+[A]/EC50) where A is the concentration of agonist added which is very close to agonist EC80 value, and IC50 and EC50 values were derived from the antagonist inhibition and orexin-A or B agonist curves, respectively.

| Kb | Compound |
| --- | --- |
| 0.0292 µM | COc1cccc(OC)c1C(=O)N1CCC(CNc2nc3ccc(Cl)cc3o2)C1 (centres unmarked) [Example 1, {3-[(6-Chloro-benzooxazol-2-ylamino)-methyl]-pyrrolidin-1-yl}-(2,6-dimethoxy-phenyl)-methanone] |
| 0.0573 µM | COc1cccc(OC)c1C(=O)N1CC[C@@H](CNc2nc3ccc(Cl)cc3o2)C1 [Example 2, {(S)-3-[(6-Chloro-benzooxazol-2-ylamino)-methyl]-pyrrolidin-1-yl}-(2,6-dimethoxy-phenyl)-methanone] |
| 0.207 µM | O=C(c1ccccc1C(F)(F)F)N1CC[C@@H](CNc2nc3ccc(F)cc3s2)C1 [Example 3, {(S)-3-[(6-Fluoro-benzothiazol-2-ylamino)-methyl]-pyrrolidin-1-yl}-(2-trifluoromethyl-phenyl)-methanone] |
| 0.129 µM | O=C(c1ccccc1OC(F)(F)F)N1CC[C@@H](CNc2nc3ccc(F)cc3s2)C1 [Example 4, {(S)-3-[(6-Fluoro-benzothiazol-2-ylamino)-methyl]-pyrrolidin-1-yl}-(2-trifluoromethoxy-phenyl)-methanone] |
| 0.0318 µM | O=C(c1ccccc1OC(F)(F)C(F)F)N1CC[C@@H](CNc2nc3ccc(F)cc3s2)C1 [Example 5, {(S)-3-[(6-Fluoro-benzothiazol-2-ylamino)-methyl]-pyrrolidin-1-yl}-[2-(1,1,2,2-tetrafluoro-ethoxy)-phenyl]-methanone] |
| 0.115 µM | Cc1ccc(C(F)(F)F)c(C(=O)N2CC[C@@H](CNc3nc4ccc(F)cc4s3)C2)c1 [Example 6, {(S)-3-[(6-Fluoro-benzothiazol-2-ylamino)-methyl]-pyrrolidin-1-yl}-(5-methyl-2-trifluoromethyl-phenyl)-methanone] |
| 0.0623 µM | Cc1onc(-c2ccccc2)c1C(=O)N1CC[C@@H](CNc2nc3ccc(F)cc3s2)C1 [Example 7, {(S)-3-[(6-Fluoro-benzothiazol-2-ylamino)-methyl]-pyrrolidin-1-yl}-(5-methyl-3-phenyl-isoxazol-4-yl)-methanone] |
| 0.0829 µM | O=C(c1cnoc1-c1ccccc1)N1CC[C@@H](CNc2nc3ccc(F)cc3s2)C1 [Example 8, {(S)-3-[(6-Fluoro-benzothiazol-2-ylamino)-methyl]-pyrrolidin-1-yl}-(5-phenyl-isoxazol-4-yl)-methanone] |
| 0.337 µM | Cc1ccc(Cl)c(C(=O)N2CC[C@@H](CNc3nc4ccc(F)cc4s3)C2)c1 [Example 9, (2-Chloro-5-methyl-phenyl)-{(S)-3-[(6-fluoro-benzothiazol-2-ylamino)-methyl]-pyrrolidin-1-yl}-methanone] |
| 0.165 µM | COc1ccc(C)cc1C(=O)N1CC[C@@H](CNc2nc3ccc(F)cc3s2)C1 [Example 10, {(S)-3-[(6-Fluoro-benzothiazol-2-ylamino)-methyl]-pyrrolidin-1-yl}-(2-methoxy-5-methyl-phenyl)-methanone] |
| 0.726 µM | O=C(c1ccccc1C(F)(F)F)N1CC[C@@H](CNc2nc3ccc(Cl)cc3o2)C1 [Example 11, {(S)-3-[(6-Chloro-benzooxazol-2-ylamino)-methyl]-pyrrolidin-1-yl}-(2-trifluoromethyl-phenyl)-methanone] |
| 0.214 µM | O=C(c1ccccc1OC(F)(F)F)N1CC[C@@H](CNc2nc3ccc(Cl)cc3o2)C1 [Example 12, {(S)-3-[(6-Chloro-benzooxazol-2-ylamino)-methyl]-pyrrolidin-1-yl}-(2-trifluoromethoxy-phenyl)-methanone] |
| 0.149 µM | O=C(c1ccccc1OC(F)(F)C(F)F)N1CC[C@@H](CNc2nc3ccc(Cl)cc3o2)C1 [Example 13, {(S)-3-[(6-Chloro-benzooxazol-2-ylamino)-methyl]-pyrrolidin-1-yl}-[2-(1,1,2,2-tetrafluoro-ethoxy)-phenyl]-methanone] |
| 0.304 µM | Cc1ccc(C(F)(F)F)c(C(=O)N2CC[C@@H](CNc3nc4ccc(Cl)cc4o3)C2)c1 [Example 14, {(S)-3-[(6-Chloro-benzooxazol-2-ylamino)-methyl]-pyrrolidin-1-yl}-(5-methyl-2-trifluoromethyl-phenyl)-methanone] |
| 0.0819 µM | Cc1onc(-c2ccccc2)c1C(=O)N1CC[C@@H](CNc2nc3ccc(Cl)cc3o2)C1 [Example 15, {(S)-3-[(6-Chloro-benzooxazol-2-ylamino)-methyl]-pyrrolidin-1-yl}-(5-methyl-3-phenyl-isoxazol-4-yl)-methanone] |
| 0.147 µM | O=C(c1cnoc1-c1ccccc1)N1CC[C@@H](CNc2nc3ccc(Cl)cc3o2)C1 [Example 16, {(S)-3-[(6-Chloro-benzooxazol-2-ylamino)-methyl]-pyrrolidin-1-yl}-(5-phenyl-isoxazol-4-yl)-methanone] |
| 0.565 µM | Cc1ccc(Cl)c(C(=O)N2CC[C@@H](CNc3nc4ccc(Cl)cc4o3)C2)c1 [Example 17, {(S)-3-[(6-Chloro-benzooxazol-2-ylamino)-methyl]-pyrrolidin-1-yl}-(2-chloro-5-methyl-phenyl)-methanone] |
| 0.355 µM | COc1ccc(C)cc1C(=O)N1CC[C@@H](CNc2nc3ccc(Cl)cc3o2)C1 [Example 18, {(S)-3-[(6-Chloro-benzooxazol-2-ylamino)-methyl]-pyrrolidin-1-yl}-(2-methoxy-5-methyl-phenyl)-methanone] |
| 0.69 µM | O=C(c1ccccc1OC(F)(F)F)N1CC[C@@H](CNc2nc3cccc(F)c3o2)C1 [Example 19, {(S)-3-[(7-Fluoro-benzooxazol-2-ylamino)-methyl]-pyrrolidin-1-yl}-(2-trifluoromethoxy-phenyl)-methanone] |
| 0.0772 µM | O=C(c1ccccc1OC(F)(F)C(F)F)N1CC[C@@H](CNc2nc3cccc(F)c3o2)C1 [Example 20, {(S)-3-[(7-Fluoro-benzooxazol-2-ylamino)-methyl]-pyrrolidin-1-yl}-[2-(1,1,2,2-tetrafluoro-ethoxy)-phenyl]-methanone] |
| 0.396 µM | Cc1ccc(C(F)(F)F)c(C(=O)N2CC[C@@H](CNc3nc4cccc(F)c4o3)C2)c1 [Example 21, {(S)-3-[(7-Fluoro-benzooxazol-2-ylamino)-methyl]-pyrrolidin-1-yl}-(5-methyl-2-trifluoromethyl-phenyl)-methanone] |
| 0.0566 µM | Cc1onc(-c2ccccc2)c1C(=O)N1CC[C@@H](CNc2nc3cccc(F)c3o2)C1 [Example 22, {(S)-3-[(7-Fluoro-benzooxazol-2-ylamino)-methyl]-pyrrolidin-1-yl}-(5-methyl-3-phenyl-isoxazol-4-yl)-methanone] |
| 0.123 µM | O=C(c1cnoc1-c1ccccc1)N1CC[C@@H](CNc2nc3cccc(F)c3o2)C1 [Example 23, {(S)-3-[(7-Fluoro-benzooxazol-2-ylamino)-methyl]-pyrrolidin-1-yl}-(5-phenyl-isoxazol-4-yl)-methanone] |
| 0.754 µM | Cc1ccc(Cl)c(C(=O)N2CC[C@@H](CNc3nc4cccc(F)c4o3)C2)c1 [Example 24, (2-Chloro-5-methyl-phenyl)-{(S)-3-[(7-fluoro-benzooxazol-2-ylamino)-methyl]-pyrrolidin-1-yl}-methanone] |
| 0.675 µM | COc1ccc(C)cc1C(=O)N1CC[C@@H](CNc2nc3cccc(F)c3o2)C1 [Example 25, {(S)-3-[(7-Fluoro-benzooxazol-2-ylamino)-methyl]-pyrrolidin-1-yl}-(2-methoxy-5-methyl-phenyl)-methanone] |
| 0.178 µM | O=C(c1ccccc1OC(F)(F)F)N1CC[C@@H](CNc2cnc3cc(Cl)ccc3n2)C1 [Example 26, {(S)-3-[(6-Chloro-quinoxalin-2-ylamino)-methyl]-pyrrolidin-1-yl}-(2-trifluoromethoxy-phenyl)-methanone] |
